Assay results as given in patent publication US20260007667A1, “TOPICAL ECTODERMAL STIMULATION” (SOLIFON PHARMACEUTICALS, INC., priority 2022, published 2026).

Tested on: patients suffering hair loss and numbness due to diabetic neuropathy
Experiment: Repetitive topical application of minoxidil in patients suffering hair loss and numbness due to diabetic neuropathy
Type: in vivo
Conditions: twice a day, approximately 1 mL per day, 2-5% minoxidil
Description: In an illustrative test with repetitive topical application of minoxidil as a VGIA 120a in patients suffering hair loss and numbness due to diabetic neuropathy, hair growth, nail growth, and temperature perception (restoration of innervation) was achieved on the leg within 2-3 weeks. The minoxidil was applied twice a day in a quantity of approximately 1 mL per day in a concentration of 2-5% minoxidil.

Nc1cc(N2CCCCC2)nc(N)[n+]1[O-] [minoxidil]
2-3 weeks: hair growth achieved on the leg (time) | temperature perception (restoration of innervation) achieved on the leg (time) | nail growth achieved (time) (leg)
